{"source": "patent US20220079910A1", "about": "“Cancer Treatment Useing Docetaxel by Controlling Peak Plasma Levels” (Modra Pharmaceuticals B.V., priority 2018, published 2022)", "key": {"[1]": {"experiment": "Phase I trial N07DOW: docetaxel plasma exposure after oral docetaxel with ritonavir", "assay_type": "in vivo", "details": "human, mean±SD; for AUC(0-t): read-out: docetaxel AUC0-48 h", "protocol": "(§1) We treated in a phase I trial (N07DOW) cancer patients (n=100) with oral docetaxel in combination with ritonavir. The dose was administered on one day (single dose), once per week. Data presented as mean±standard deviation. If available, kinetic data of 2 cycles per patient were used."}, "cancer patients [2]": {"test_system": "cancer patients", "experiment": "Phase I trial N07DOW: treatment duration, SAEs/DLTs, best response", "assay_type": "in vivo, human", "details": "n=100", "protocol": "as §1\nTreatment duration of 19 patients was from 19 up to 72 weeks. These were patients with the following cancers. Head and neck (n=1), non-small cell lung (n=8), anal (n=1), primary unknown (n=3), ovarian (n=1), esophageal (n=1), urothelial cell (n=2), leiomyosarcoma (n=1) and neuroendocrine lung carcinoma (n=1). The docetaxel exposure in these patients was:\n(§2) The docetaxel exposure in these patients was:\nFiftytwo patients had SD (stable disease) (n=42) or PR (partial response) (n=10) as best treatment response."}, "[3]": {"experiment": "Phase I trial N10BOM: docetaxel plasma exposure after oral docetaxel with ritonavir", "assay_type": "in vivo", "details": "human; for AUC(0-t): read-out: docetaxel AUC0-48 h", "protocol": "(§3) We treated in a phase I trial (N10BOM) cancer patients (n=64) with oral docetaxel in combination with ritonavir. The dose was administered bi-daily once per week continuously."}, "cancer patients [4]": {"test_system": "cancer patients", "experiment": "Phase I trial N10BOM: treatment duration, SAEs/DLTs, best response", "assay_type": "in vivo, human", "details": "n=64", "protocol": "as §3\nTreatment duration of 8 patients was from 19 up to 55 weeks. These were patients with the following cancers. Head and neck cancer (n=2; PR), non-small cell lung (n=4; SD), colorectal (n=1; SD) and giant cell neuroendocrine carcinoma (n=1; SD). The docetaxel exposure in these patients was:\nas §2\nTwentyfive patients had SD or PR as best treatment response."}, "[5]": {"experiment": "Weekly intravenous docetaxel infusion: AUC and CMAX (Baker et al.)", "assay_type": "in vivo, human", "details": "IV 35 mg/m2 in 0.5 h vs oral in patients with solid tumors (not prostate)"}, "[6]": {"experiment": "IV docetaxel q3w AUC in mCRPC patients vs other tumors (De Vries Schultink et al.)", "details": "human, in vivo, weekly equivalent, read-out: weekly AUC of IV docetaxel in mCRPC patients (q3w AUC divided by 3)", "protocol": "The target minimum AUC threshold in mCRPC patients is highlighted and ranges from about 600-800 h*ng/mL."}, "[7]": {"test_system": "metastasized castration-resistant prostate cancer (mCRPC)", "experiment": "Phase IB/IIA study in mCRPC (M17DOC): PSA response, radiological response, treatment cycles", "assay_type": "in vivo, human", "details": "FIG. 3 / FIG. 6; target range 500-1500 h*ng/mL (FIG. 6)", "excerpt": "In FIG. 8 a plot is shown of the number of treatment cycles (with a maximum of 30) in a multicenter clinical phase IB study in mCRPC (M17DOC) of evaluable patients. Patients were scored, as PSA progression (black bars); PSA equal to baseline or decline (<50%) (dark grey bars); PSA response (decline ≥50%) (medium grey bars); clinical response (pain reduction) up to the maximum treatment period permitted in the protocol of 30 weeks (light grey bars).\n(§4) A multicenter clinical phase IB/IIA study was conducted in mCRPC (M17DOC), wherein ModraDoc006, an oral docetaxel formulation was combined with ritonavir (ModraDoc006/r), in metastasized castration-resistant prostate cancer (mCRPC).\n(§5) The study included patients diagnosed with metastasized castration-resistant prostate cancer (mCRPC), dosed in a bi-daily once weekly (BIDW) dosing schedule at 4 dose levels (see table below).\nThis study included 20 evaluable patients diagnosed with metastasized castration-resistant prostate cancer (mCRPC), dosed in a bi-daily once weekly (BIDW) dosing schedule at 4 dose levels (see table)."}, "[8]": {"details": "in vivo", "description": "The described method was successfully applied in clinical studies with oral administration of docetaxel in combination with ritonavir.\nOur next step was to investigate this oral treatment schedule in patients with metastatic Castration Resistant Prostate Cancer (mCRPC) in a phase IB/.IIA trial.\nas §4, §5"}, "[9]": {"details": "weekly docetaxel 35 mg/m2 as 0.5 h intravenous infusion; cited from earlier work"}, "[10]": {"details": "cited from earlier work"}, "[11]": {"details": "oral, 10 patients with SAEs and DLTs (≥grade 3)"}, "[12]": {"details": "oral, 25 patients with SD or PR as best treatment response"}, "[13]": {"details": "po, oral docetaxel + ritonavir bi-daily once per week, 8 patients with treatment duration 19 up to 55 weeks"}}, "note": "Read-outs that look alike come from different tables or passages of the source."}
{"smiles": "CC(=O)O[C@@]12CO[C@@H]1C[C@H](O)[C@@]1(C)C(=O)[C@H](O)C3=C(C)[C@@H](OC(=O)[C@H](O)[C@@H](NC(=O)OC(C)(C)C)c4ccccc4)C[C@@](O)([C@@H](OC(=O)c4ccccc4)[C@H]21)C3(C)C", "note": "[docetaxel]", "values": [{"measurement": "AUC(0-t)", "setting": "[1]; oral, 15 patients with SAEs and DLTs (≥grade 3)", "value": "2340 ± 1450", "unit": "ng·h/mL"}, {"measurement": "Cmax", "setting": "[1]; oral, 15 patients with SAEs and DLTs (≥grade 3), read-out: docetaxel CMAX", "value": "351 ± 244", "unit": "ng/mL"}, {"measurement": "AUC(0-t)", "setting": "[1]; oral, 52 patients with SD or PR as best treatment response", "value": "1080 ± 1020", "unit": "ng·h/mL"}, {"measurement": "Cmax", "setting": "[1]; oral, 52 patients with SD or PR as best treatment response, read-out: docetaxel CMAX", "value": "197 ± 186", "unit": "ng/mL"}, {"measurement": "AUC(0-t)", "setting": "[1]; po, oral docetaxel + ritonavir, single dose once per week, 19 patients with treatment duration 19 up to 72 weeks", "value": "803 ± 634", "unit": "ng·h/mL"}, {"measurement": "Cmax", "setting": "[1]; po, oral docetaxel + ritonavir, single dose once per week, 19 patients with treatment duration 19 up to 72 weeks, read-out: docetaxel CMAX (peak)", "value": "148 ± 113", "unit": "ng/mL"}, {"measurement": "patients with PR (partial response) as best treatment response", "setting": "cancer patients [2]", "value": 10, "unit": "patients"}, {"measurement": "patients with SAEs and DLTs (possible, probable, definite; ≥grade 3)", "setting": "cancer patients [2]", "value": 15, "unit": "patients"}, {"measurement": "patients with SD (stable disease) as best treatment response", "setting": "cancer patients [2]", "value": 42, "unit": "patients"}, {"measurement": "patients with SD or PR as best treatment response", "setting": "cancer patients [2]", "value": "Fiftytwo"}, {"measurement": "Cmax", "setting": "[3]; [11]", "value": "175 ± 117", "unit": "ng/mL"}, {"measurement": "AUC(0-t)", "setting": "[3]; [11]", "value": "1810 ± 1260", "unit": "ng·h/mL"}, {"measurement": "Cmax", "setting": "[3]; [12]", "value": "140 ± 83", "unit": "ng/mL"}, {"measurement": "AUC(0-t)", "setting": "[3]; [12]", "value": "1240 ± 702", "unit": "ng·h/mL"}, {"measurement": "Cmax", "setting": "[3]; [13]", "value": "143 ± 67", "unit": "ng/mL"}, {"measurement": "AUC(0-t)", "setting": "[3]; [13]", "value": "1220 ± 620", "unit": "ng·h/mL"}, {"measurement": "patients with SAEs and DLTs (possible, probable, definite; ≥grade 3)", "setting": "cancer patients [4]", "value": 10, "unit": "patients"}, {"measurement": "patients with SD or PR as best treatment response", "setting": "cancer patients [4]", "value": "Twentyfive"}, {"measurement": "CMAX after intravenous administration relative to oral ModraDoc006/r 30-20/100-100", "setting": "[5]", "value": "ten-fold higher"}, {"measurement": "AUC", "setting": "[6]", "value": "~600", "unit": "ng·h/mL"}, {"measurement": "length of treatment (number of cycles) in patients in a target docetaxel AUC range", "setting": "[7]", "value": "trending longer"}, {"measurement": "docetaxel clearance in mCRPC patient population vs patients with other solid tumors", "setting": "[8]", "value": "higher clearance"}, {"measurement": "AUC", "setting": "[9]", "value": "1480 ± 410", "unit": "ng·h/mL"}, {"measurement": "ratio of AUCs for IV docetaxel in mCRPC patients vs other tumors", "setting": "[10]; 1820/3300", "value": 55, "unit": "%"}, {"measurement": "q3w AUC of IV docetaxel in mCRPC patients", "setting": "[10]; IV, every three weeks", "value": 1820, "unit": "ng·h/mL"}]}
